Earlier results, collected in patent US9928346B1, “Test panel to measure blood neurotoxin levels in prematernal women and for the general public in relation to mental disorders of the aging” (priority 2016, dated 2018).
Read-outs that look alike come from different tables or passages of the source.

Experiments:
[1] = for an average man
[2] = for Minimum Risk Level: blood levels
[3] = orally consumed, toxicology assessment

Structure (SMILES) | tentative dietary suggestions [1] | Minimum Risk Level [2] [microgram per liter] | Minimum Risk Level [3] [mg Al/kg body weight/day] | absorption by the intestines (digested aluminum) [%] | absorbed in the blood (intravenous injection from a vaccine) [%] | MRL for blood content ([2]; recommended by Mayo Clinic and Micro Trace Minerals diagnostic centers) [microgram/liter]
[Mn+2] [Manganese, manganese] | about 10 mg/day | <18 | – | – | – | –
[Al] [Aluminum, aluminum] | – | <6 | 1.0 | 1 | 100 | < 6
[AsH3] [Arsenic, arsenic] | – | <10 | – | – | – | –
[Pb] [Lead, lead] | – | <50 | – | – | – | –
